Assay results from ChEMBL document CHEMBL1146811, “Specific inhibition effects of N-pentafluorobenzyl-1-deoxynojirimycin on human CD4+ T cells” (Bioorg Med Chem Lett, 2004).

Assay: Effect on proliferation of human peripheral blood mononuclear cells (PMBC) at 72 hr using MTT assay
Format: functional

OCC1C(O)C(O)C(O)CN1Cc1c(F)c(F)c(F)c(F)c1F (configuration not stated)
IC50: 20.2 µM

OC[C@H]1NC[C@H](O)[C@@H](O)[C@@H]1O [DUVOGLUSTAT]
IC50: 25.6 µM
